Test results as given in patent US20110015119A1, “NOVEL SEMI-SYNTHETIC GLYCOPEPTIDES AS ANTIBACTERIAL AGENTS” (LEAD THERAPEUTICS, INC., priority 2009, published 2011).
In brackets after ≈: the same amount, converted by molar mass. Where two headings read alike, the source gives them in different places.

Key:
Type in all cases: cell-based
[1] = system: Staphylococcus epidermidis 835; test: MIC by broth microdilution, SE 835
Procedure: (§1) Antibacterial activity in vitro is investigated by broth microdilution method in Meuller-Hinton broth as recommended by NCCLS. All strains tested are clinical isolates either sensitive or resistant to natural glycopeptides. MIC values were determined using the CLSI-recommended broth microdilution procedure (Clinical and Laboratory Standards Institute, Methods for Dilution Antimicrobial Susceptibility Tests for Bacteria That Grow Aerobically; Approved Standard-Seventh Edition.). Automated liquid handlers (Multidrop 384, Labsystems, Helsinki, Finland; Biomek 2000 and Multimek 96, Beckman Coulter, Fullerton Calif.) were used to conduct serial dilutions and liquid transfers. The MIC value for vancomycin is given for comparison. The abbreviations for organisms tested are as follow: SA 100—Staphylococcus aureus 100 (ATCC 29213); SA 757—Staphylococcus aureus 757 (MRSA); SA 2012—Staphylococcus aureus 2012 (VISA); SE 835—Staphylococcus epidermidis 835; SE 831—Staphylococcus epidermidis 831 (MRSE); EFc 101—Enterococcus faecalis 101 (ATCC 29212); EFc 848—Enterococcus faecalis 848 (VRE, Van A); EFcm 800—Enterococcus faecium 800; EFcm 752—Enterococcus faecium 752 (VRE, Van A); SPNE 1195—Streptococcus pneumoniae 1195 (ATCC 49619); SPY 712—Streptococcus pyogenes 712.

[2] = system: Enterococcus faecium 752 (VRE, Van A); test: MIC by broth microdilution, EFcm 752; details: class symbols
Procedure: as §1

[3] = system: Staphylococcus epidermidis 831 (MRSE); test: MIC by broth microdilution, SE 831; details: read-out: MIC SE 831
Procedure: as §1

[4] = system: Staphylococcus aureus 757 (MRSA); test: MIC by broth microdilution, SA 757; details: read-out: MIC SA 757
Procedure: as §1

[5] = system: Staphylococcus aureus 2012 (VISA); test: MIC by broth microdilution, SA 2012; details: class symbols
Procedure: as §1

[6] = system: Streptococcus pyogenes 712; test: MIC by broth microdilution, SPY 712
Procedure: as §1

[7] = system: Streptococcus pneumoniae 1195 (ATCC 49619); test: MIC by broth microdilution, SPNE 1195
Procedure: as §1

[8] = system: Enterococcus faecalis 848 (VRE, Van A); test: MIC by broth microdilution, EFc 848; details: class symbols
Procedure: as §1

Enterococcus faecium 800 = test: MIC by broth microdilution, EFcm 800
Procedure: as §1

[9] = system: Staphylococcus aureus 100 (ATCC 29213); test: MIC by broth microdilution, SA 100
Procedure: as §1

[10] = system: Enterococcus faecalis 101 (ATCC 29212); test: MIC by broth microdilution, EFc 101; details: class symbols
Procedure: as §1

[11] = Staphylococcus epidermidis, 835, read-out: MIC SE 835
[12] = Enterococcus faecium, VRE, read-out: MIC E FCM 752, Enterococcus faecium 752 (VRE, Van A)
[13] = Staphylococcus epidermidis, MRSE
[14] = Staphylococcus aureus, VISA, read-out: MIC SA 2012, Staphylococcus aureus 2012 (VISA)
[15] = Streptococcus pyogenes, 712, read-out: MIC S PYO 712
[16] = Streptococcus pneumoniae, ATCC49619, read-out: MIC S PNE 1195
[17] = Enterococcus faecalis, VRE, read-out: MIC E FC 848, Enterococcus faecalis 848 (VRE, Van A)
[18] = Enterococcus faecium, 800, read-out: MIC E FCM 800
[19] = Staphylococcus aureus, ATCC29213, read-out: MIC SA 100
[20] = Enterococcus faecalis, ATCC29212, read-out: MIC E FC 101, Enterococcus faecalis 101 (ATCC 29212)

Row | Structure (SMILES) | MIC [1, 11] [µg/mL] | MIC [2, 12] [µg/mL] | MIC [3, 13] [µg/mL] | MIC ([4]; Staphylococcus aureus, MRSA) [µg/mL] | MIC [5, 14] [µg/mL] | MIC [6, 15] [µg/mL] | MIC [7, 16] [µg/mL] | MIC [8, 17] [µg/mL] | MIC (Enterococcus faecium 800; [18]) [µg/mL] | MIC [9, 19] [µg/mL] | MIC [10, 20] [µg/mL] | also measured
1 | CCCCCOc1ccc(S(=O)(=O)NCCCCNCc2c(O)cc3c(c2O)-c2cc(ccc2O)[C@H]2NC(=O)[C@@H]4NC(=O)[C@H](CC(N)=O)NC(=O)[C@H](NC(=O)[C@@H](CC(C)C)NC)[C@H](O)c5ccc(c(Cl)c5)Oc5cc4cc(c5O[C@@H]4O[C@H](CO)[C@@H](O)[C@H](O)[C@H]4O[C@H]4C[C@](C)(NC(=O)CN)[C@H](O)[C@H](C)O4)Oc4ccc(cc4Cl)[C@@H](O)[C@H](NC2=O)C(=O)N[C@@H]3C(=O)O)cc1 (atropisomer, axis not shown) [Compound 346] | – | – | – | – | – | – | – | – | – | – | – | MIC ([1]; Staphylococcus epidermidis 835, class symbols, read-out: MIC SE 835): 0.01 to 0.5 µg/mL (≈ 0.00546 to 0.273 µM); MIC ([2]; Enterococcus faecium 752 (VRE, Van A), read-out: MIC E FCM 752): 8 to 16 µg/mL (≈ 4.36 to 8.73 µM); MIC ([3]; Staphylococcus epidermidis 831 (MRSE), class symbols): 0.01 to 0.5 µg/mL (≈ 0.00546 to 0.273 µM); MIC ([4]; Staphylococcus aureus 757 (MRSA), class symbols): 0.01 to 0.5 µg/mL (≈ 0.00546 to 0.273 µM); MIC ([5]; Staphylococcus aureus 2012 (VISA), read-out: MIC SA 2012): 0.5 to 1 µg/mL (≈ 0.273 to 0.546 µM); MIC ([6]; Streptococcus pyogenes 712, class symbols, read-out: MIC S PYO 712): 0.01 to 0.5 µg/mL (≈ 0.00546 to 0.273 µM); MIC ([7]; ATCC49619, Streptococcus pneumoniae 1195 (ATCC 49619), class symbols, read-out: MIC S PNE 1195): 0.01 to 0.5 µg/mL (≈ 0.00546 to 0.273 µM); MIC ([8]; Enterococcus faecalis 848 (VRE, Van A), read-out: MIC E FC 848): > 16 µg/mL; MIC (Enterococcus faecium 800; Enterococcus faecium 800, class symbols, read-out: MIC E FCM 800): 0.01 to 0.5 µg/mL (≈ 0.00546 to 0.273 µM); MIC ([9]; ATCC29213, Staphylococcus aureus 100 (ATCC 29213), class symbols, read-out: MIC SA 100): 0.01 to 0.5 µg/mL (≈ 0.00546 to 0.273 µM); MIC ([10]; ATCC29212, Enterococcus faecalis 101 (ATCC 29212), read-out: MIC E FC 101): 0.5 to 1 µg/mL (≈ 0.273 to 0.546 µM)
2 | CCCCCOCCNC(=O)Oc1cc(O)c2c(c1)[C@@H](C(=O)O)NC(=O)[C@H]1NC(=O)[C@H](NC(=O)[C@@H]3NC(=O)[C@H](CC(N)=O)NC(=O)[C@H](NC(=O)[C@@H](CC(C)C)NC)[C@H](O)c4ccc(c(Cl)c4)Oc4cc3cc(c4O[C@@H]3O[C@H](CO)[C@@H](O)[C@H](O)[C@H]3O[C@H]3C[C@](C)(N)[C@H](O)[C@H](C)O3)Oc3ccc(cc3Cl)[C@H]1O)c1ccc(O)c-2c1 (atropisomer, axis not shown) [Compound 348] | 4 to 8 (≈ 2.49 to 4.98 µM) | > 16 | 4 to 8 (≈ 2.49 to 4.98 µM) | 2 to 4 (≈ 1.24 to 2.49 µM) | 8 to 16 (≈ 4.98 to 9.96 µM) | 0.5 to 1 (≈ 0.311 to 0.622 µM) | 0.01 to 0.5 (≈ 0.00622 to 0.311 µM) | > 16 | 1 to 2 (≈ 0.622 to 1.24 µM) | 2 to 4 (≈ 1.24 to 2.49 µM) | 2 to 4 (≈ 1.24 to 2.49 µM) | –
3 | CCCCCCOc1ccc(S(=O)(=O)NCCCCCCNC(=O)Oc2cc(O)c3c(c2)[C@@H](C(=O)O)NC(=O)[C@H]2NC(=O)[C@H](NC(=O)[C@@H]4NC(=O)[C@H](CC(N)=O)NC(=O)[C@H](NC(=O)[C@@H](CC(C)C)NC)[C@H](O)c5ccc(c(Cl)c5)Oc5cc4cc(c5O[C@@H]4O[C@H](CO)[C@@H](O)[C@H](O)[C@H]4O[C@H]4C[C@](C)(N)[C@H](O)[C@H](C)O4)Oc4ccc(cc4Cl)[C@H]2O)c2ccc(O)c-3c2)cc1 (atropisomer, axis not shown) [Compound 349] | 0.01 to 0.5 (≈ 0.00546 to 0.273 µM) | 0.5 to 1 (≈ 0.273 to 0.546 µM) | 0.01 to 0.5 (≈ 0.00546 to 0.273 µM) | 0.01 to 0.5 (≈ 0.00546 to 0.273 µM) | 0.5 to 1 (≈ 0.273 to 0.546 µM) | 0.01 to 0.5 (≈ 0.00546 to 0.273 µM) | 0.01 to 0.5 (≈ 0.00546 to 0.273 µM) | 4 to 8 (≈ 2.18 to 4.37 µM) | 0.01 to 0.5 (≈ 0.00546 to 0.273 µM) | 0.01 to 0.5 (≈ 0.00546 to 0.273 µM) | 0.01 to 0.5 (≈ 0.00546 to 0.273 µM) | –
4 | CCCCCCc1ccc(S(=O)(=O)NCCCCCNC(=O)Oc2cc(O)c3c(c2)[C@@H](C(=O)O)NC(=O)[C@H]2NC(=O)[C@H](NC(=O)[C@@H]4NC(=O)[C@H](CC(N)=O)NC(=O)[C@H](NC(=O)[C@@H](CC(C)C)NC)[C@H](O)c5ccc(c(Cl)c5)Oc5cc4cc(c5O[C@@H]4O[C@H](CO)[C@@H](O)[C@H](O)[C@H]4O[C@H]4C[C@](C)(N)[C@H](O)[C@H](C)O4)Oc4ccc(cc4Cl)[C@H]2O)c2ccc(O)c-3c2)cc1 (atropisomer, axis not shown) [Compound 350] | 0.01 to 0.5 (≈ 0.00555 to 0.278 µM) | 1 to 2 (≈ 0.555 to 1.11 µM) | 0.01 to 0.5 (≈ 0.00555 to 0.278 µM) | 0.01 to 0.5 (≈ 0.00555 to 0.278 µM) | 0.01 to 0.5 (≈ 0.00555 to 0.278 µM) | 0.01 to 0.5 (≈ 0.00555 to 0.278 µM) | 0.01 to 0.5 (≈ 0.00555 to 0.278 µM) | 4 to 8 (≈ 2.22 to 4.44 µM) | 0.01 to 0.5 (≈ 0.00555 to 0.278 µM) | 0.01 to 0.5 (≈ 0.00555 to 0.278 µM) | 0.01 to 0.5 (≈ 0.00555 to 0.278 µM) | –
